Results on seven molecules are retold here after article PMC9703800 (BMC Chemistry, 2022).

The IC50 is the concentration that gives 50% inhibition. By Ki is commonly meant a measure of affinity in units of concentration, obtained from inhibition or displacement. As a reminder, the inhibition is how much of the control response was suppressed.

Each structure is given as a SMILES string. “Also recorded” adds a separate entry of the source.

For assay [1], the target named is T1, Acetylcholinesterase (AChE) (Electrophorus electricus, UniProt O42275).
T1 construct: Type V-S, lyophilized powder, from electric eel; purchased Sigma-Aldrich; host or cells: electric eel (natural source)
Description: biochemical. Conditions: for IC50: isolated compounds, mean ± SD, three experiments, read-out: AChEI (μM), IC50; for inhibition at 40 µg/mL: read-out: AChE inhibition (%). The format is biochemical.

Assay [2] addresses butyrylcholinesterase (BChE) (Equus caballus, UniProt P81908). As to the kind of experiment: biochemical. The note with it: for IC50: isolated compounds, mean ± SD, three experiments, read-out: BChEI (μM), IC50; for inhibition at 40 µg/mL: read-out: BChE inhibition (%). The format is biochemical.
A further assay has as its target T2, AChE (Electrophorus electricus, UniProt O42275).
T2 construct: Type V-S, lyophilized powder, from electric eel; purchased Sigma-Aldrich; host or cells: electric eel (natural source)
Description: Kinetic study of AChE inhibition (Lineweaver-Burk). The format is biochemical. The procedure:
(§1) Kinetic studies of compound 2 were performed for the inhibition of ChEs based on the Ellman's method, using various concentrations of the inhibitor [14]. […]

The target in another assay is BChE (Equus caballus, UniProt P81908). As to the kind of experiment: Kinetic study of BChE inhibition (Lineweaver-Burk). The format is biochemical. On the procedure:
as §1

The next assay deals with PC12 cells. As to the kind of experiment: Neuroprotectivity against H2O2-induced cell death in PC12 cells (MTT). The format is cell-based. Conditions: 50 µM, positive control, H2O2 400 μM.

T1 sequence (O42275 24-633): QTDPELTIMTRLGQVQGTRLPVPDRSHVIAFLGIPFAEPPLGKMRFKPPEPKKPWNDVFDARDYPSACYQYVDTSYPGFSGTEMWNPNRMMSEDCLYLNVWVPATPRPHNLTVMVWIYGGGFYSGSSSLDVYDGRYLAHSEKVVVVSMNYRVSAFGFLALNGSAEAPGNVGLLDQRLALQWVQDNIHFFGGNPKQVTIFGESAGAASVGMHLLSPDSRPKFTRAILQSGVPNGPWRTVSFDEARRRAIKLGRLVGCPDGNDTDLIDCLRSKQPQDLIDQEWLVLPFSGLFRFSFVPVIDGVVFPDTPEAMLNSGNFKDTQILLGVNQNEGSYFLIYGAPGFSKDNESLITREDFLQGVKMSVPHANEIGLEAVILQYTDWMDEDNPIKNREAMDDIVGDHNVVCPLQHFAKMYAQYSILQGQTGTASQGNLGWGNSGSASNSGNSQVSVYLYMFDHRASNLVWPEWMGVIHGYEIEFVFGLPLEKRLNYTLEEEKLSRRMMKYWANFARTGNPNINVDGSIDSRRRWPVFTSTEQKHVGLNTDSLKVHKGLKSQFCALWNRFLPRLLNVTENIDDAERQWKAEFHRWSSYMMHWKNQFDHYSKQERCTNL
T2 sequence (O42275 24-633): as above
Sequence of butyrylcholinesterase (BChE) (P81908 whole entry): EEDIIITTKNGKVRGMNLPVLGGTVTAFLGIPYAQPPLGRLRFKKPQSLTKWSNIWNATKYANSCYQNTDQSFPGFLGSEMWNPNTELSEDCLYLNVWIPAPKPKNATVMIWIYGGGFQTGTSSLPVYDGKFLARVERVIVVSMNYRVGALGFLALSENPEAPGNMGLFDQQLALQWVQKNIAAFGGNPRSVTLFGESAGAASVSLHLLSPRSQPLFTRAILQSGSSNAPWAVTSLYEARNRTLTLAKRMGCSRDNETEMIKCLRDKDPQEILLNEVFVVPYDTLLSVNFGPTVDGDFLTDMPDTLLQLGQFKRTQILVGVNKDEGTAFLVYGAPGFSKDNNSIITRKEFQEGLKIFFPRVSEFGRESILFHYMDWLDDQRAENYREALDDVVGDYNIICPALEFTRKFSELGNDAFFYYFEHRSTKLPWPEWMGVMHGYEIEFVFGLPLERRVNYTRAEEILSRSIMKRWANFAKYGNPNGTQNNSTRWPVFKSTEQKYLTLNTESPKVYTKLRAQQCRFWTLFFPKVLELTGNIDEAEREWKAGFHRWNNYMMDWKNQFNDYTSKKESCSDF
Sequence of BChE (P81908 whole entry): as above

`O=C(CCCCCCCCc1ccccc1)c1c(O)cccc1O` [Compound 1, 1-(2,6-Dihydroxyphenyl)-9-phenylnonan-1-one]: in assay [1], the “AChE inhibitory activity (in words)” value was “potent inhibitors; also recorded: strong inhibitors” and the IC50 stood at 67.4 ± 1.52 µM. In assay [2], the “BChE inhibitory activity (in words)” value was “potent inhibitors; also recorded: strong inhibitors” and the IC50 stood at 27.16 ± 0.06 µM.
As for `O=C(CCCCCCCCc1ccc(O)c(O)c1)c1c(O)cccc1O` [Compound 2, 1-(2,6-Dihydroxyphenyl)-9-(3,4-dihydroxyphenyl)nonan-1-one], in assay [1], the “AChE inhibitory activity (in words)” value is recorded as “potent inhibitors; also recorded: strong inhibitors” and the IC50 came to 25 ± 0.95 µM. Also, the “Mechanism of AChE inhibition” value on AChE (Lineweaver-Burk plot) is “non-competitive inhibition; also recorded: non-competitively inhibited”. At AChE (Lineweaver-Burk, inhibitor 0, 28, 56, 112 μM), this molecule had a Ki of 25 µM. Further, in assay [2], the “BChE inhibitory activity (in words)” value is “potent inhibitors; also recorded: strong inhibitors” and the IC50 stood at 22.36 ± 0.03 µM. Besides, the “Mechanism of BChE inhibition” value on BChE (Lineweaver-Burk plot) is listed as “non-competitive inhibition; also recorded: non-competitively inhibited”. Besides, at BChE (Lineweaver-Burk, inhibitor 0, 14, 28, 56 μM), the affinity, expressed as Ki, was 22.4 µM.
In the case of `COc1ccc(CC(C)C(C)Cc2ccc(O)c(O)c2)cc1OC` (stereo not drawn) [Compound 3, 4-(4-(3,4-Dimethoxyphenyl)-2,3-dimethylbutyl)benzene-1,2-diol], the inhibition at 40 µg/mL in assay [1] came to 0%; in assay [2] it was 47.4%.
In the same order, the values of `COc1cc([C@H]2O[C@@H](c3ccc(O)c(OC)c3)[C@H](C)[C@@H]2C)ccc1O` [Compound 4, 4,4'-((2R,3R,4S,5S)-3,4-Dimethyltetrahydrofuran-2,5-diyl)bis(2-methoxyphenol)] are 0% and 45.8%.
On the same counts, the results for `COc1cc(CC(C)C(C)Cc2ccc3c(c2)OCO3)ccc1O` (stereo not drawn) [Compound 5, 4-(4-(Benzo[d][1,3]dioxol-5-yl)-2,3-dimethylbutyl)-2-methoxyphenol] are 12.8% and 54.4%.
For the molecule `COc1cc(C(OC)C(C)C(C)Cc2ccc3c(c2)OCO3)ccc1O` (stereo not drawn) [Compound 6, 4-(4-(Benzo[d][1,3]dioxol-5-yl)-1-methoxy-2,3-dimethylbutyl)-2-methoxyphenol], the values for the inhibition at 40 µg/mL in assay [1] and in assay [2] were 0% and 44%, respectively.
As to `O=c1c(O)c(-c2ccc(O)c(O)c2)oc2cc(O)cc(O)c12` [quercetin], the “Neuroprotection (%) against H2O2-induced cell death” value with PC12 cells is given as 72.79%.
